Test results published in patent publication US8067424B2, “Selective inhibitors for cyclin-dependent kinases” (Emory University, priority 2007, dated 2011).
Like-named read-outs stand apart in the source and are kept apart here.

Tests used:
Type in all cases: biochemical
PKBα = PKBα (Homo sapiens, UniProt P31749, S473D); experiment: Kinase screen: APH-PKBa-S473D assay
Protocol: (§1) Generally, the same procedure was used for all assays. Since the total assay volume was 25.5 microliters, 0.5 microliters of inhibitors at 51× assay concentration were added to the plates before any other addition.
(§2) The basic procedure was to add 0.5 microliters inhibitor/control in DMSO to plate. Fifteen microliters of enzyme/substrate/buffer mix were added and incubated for 5 min. Ten microliters MgATP at the relevant concentration were added and incubated for 30 min. The assay was stopped by adding 5 microliters of 3% orthophosphoric acid. The assay was transferred to a p81 filter plate and read in a scintillation counter of 30 sec/well. Note that this assay procedure was not followed for MKK1, which instead involved a two-step assay, and PKC alpha, which required the addition of lipid vesicles.
APH-PKBa-S473D assay: APH-PKBa-S473D (5-20 mU diluted in 50 mM Tris pH 7.5, 0.1 mM EGTA, 0.1% b-mercaptoethanol, 1 mg/ml BSA) was assayed against a modified Crosstide peptide […] (SEQ ID NO: 4) in a final volume of 25.5 μl containing 50 mM Tris pH 7.5, 0.05% b-mercaptoethanol, 30 μM substrate peptide, 10 mM magnesium acetate and 0.005 mM [33P-g-ATP] (50-1000 cpm/pmole) and incubated for 30 min at room temperature. Assays were stopped by addition of 5 μl of 0.5 M (3%) orthophosphoric acid and then harvested onto P81 Unifilter plates with a wash buffer of 50 mM orthophosphoric acid.

PKA = PKA (Homo sapiens, UniProt P17612); experiment: Kinase screen: PKA assay
Protocol: as §1, §2
PKA assay: PKA (5-20 mU diluted in 20 mM MOPS pH 7.5, 1 mM EDTA, 0.01% Brij35, 0.1% b-mercaptoethanol, 1 mg/ml BSA) was assayed against Kemptide (LRRASLG) (SEQ ID NO: 6) in a final volume of 25.5 μl containing 8 mM MOPS pH 7.5, 0.2 mM EDTA, 30 μM substrate peptide, 10 mM magnesium acetate and 0.005 mM [33P-g-ATP] (50-1000 cpm/pmole) and incubated for 30 min at room temperature. Assays were stopped by addition of 5 μl of 0.5 M (3%) orthophosphoric acid and then harvested onto P81 Unifilter plates with a wash buffer of 50 mM orthophosphoric acid.

PHK = experiment: Kinase screen: PBK assay (phosphorylase b peptide); conditions: for mean activity remaining (as a percentage of the original activity), PHK: 10 micromolar compound
Protocol: as §1, §2
PBK assay: PBK (5-20 mU diluted in 50 mM Na-b-glycerophosphate pH 7.0, 0.1% b-mercaptoethanol) was assayed against phosphorylase b peptide ([…]) (SEQ ID NO: 14) in a final volume of 25.5 μl containing 50 mM Tris pH 8.6, 50 mM Na-b-glycerophosphate, 0.04 mM CaCl2, phosphorylase b peptide (0.196 mM), 10 mM magnesium acetate, 0.02 mM [33P-g-ATP] (500-1000 cpm/pmole) then incubated for 15 min at room temperature. Assays were stopped by addition of 5 μl of 0.5 M (3%) orthophosphoric acid and then harvested onto P81 Unifilter plates with a wash buffer of 50 mM orthophosphoric acid.

TBK1 = target: T1, TBK1 (Homo sapiens, UniProt Q9UHD2); experiment: Kinase screen: TBK1 / TBK1 (DU12569) assay; conditions: 10 micromolar compound; for remaining activity at 10 µM: read-out: mean activity remaining (as a percentage of the original activity), TBK1
T1 construct: DU12569
T1 sequence (Q9UHD2 1-729): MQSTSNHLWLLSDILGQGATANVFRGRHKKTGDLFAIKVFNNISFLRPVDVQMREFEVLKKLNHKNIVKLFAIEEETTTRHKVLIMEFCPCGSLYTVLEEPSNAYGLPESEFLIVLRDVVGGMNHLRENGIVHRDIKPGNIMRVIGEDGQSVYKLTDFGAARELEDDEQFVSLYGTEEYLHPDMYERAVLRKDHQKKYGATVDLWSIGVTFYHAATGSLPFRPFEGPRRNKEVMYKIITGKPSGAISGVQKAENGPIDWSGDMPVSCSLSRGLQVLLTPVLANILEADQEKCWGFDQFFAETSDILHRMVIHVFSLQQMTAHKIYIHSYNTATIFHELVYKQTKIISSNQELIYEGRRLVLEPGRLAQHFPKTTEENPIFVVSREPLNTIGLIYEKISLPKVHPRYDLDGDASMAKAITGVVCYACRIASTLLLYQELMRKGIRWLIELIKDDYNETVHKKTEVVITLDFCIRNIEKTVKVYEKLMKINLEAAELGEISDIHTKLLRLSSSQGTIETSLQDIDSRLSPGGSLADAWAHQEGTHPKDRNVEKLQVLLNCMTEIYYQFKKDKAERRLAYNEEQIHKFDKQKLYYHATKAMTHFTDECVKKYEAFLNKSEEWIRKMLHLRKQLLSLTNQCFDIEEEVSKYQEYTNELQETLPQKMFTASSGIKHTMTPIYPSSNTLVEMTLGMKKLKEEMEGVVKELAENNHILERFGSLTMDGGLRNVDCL
Protocol: as §1, §2
(§3) TBK1 assay: TBK1 (5-20 mU diluted in 50 mM Tris pH 7.5, 0.1 mM EGTA, 1 mg/ml BSA) was assayed against a substrate peptide ([…]) (SEQ ID NO: 31) in a final volume of 25.5 μl containing 50 mM Tris pH 7.5, 300 μM substrate peptide, 10 mM magnesium acetate and 0.05 mM [33P-g-ATP] (50-1000 cpm/pmole) and incubated for 30 min at room temperature. Assays were stopped by addition of 5 μl of 0.5 M (3%) orthophosphoric acid and then harvested onto P81 Unifilter plates with a wash buffer of 50 mM orthophosphoric acid.
as §3, with “TBK1 (DU12569)” for “TBK1”, “37)” for “31)”

[1] = 0.5 h, 10 micromolar compound, read-out: mean activity remaining (as a percentage of the original activity), PKBa
[2] = 10 micromolar compound, read-out: mean activity remaining (as a percentage of the original activity), PKA

Sequence of PKBα (P31749 118-480 S473D limits assumed, species assumed): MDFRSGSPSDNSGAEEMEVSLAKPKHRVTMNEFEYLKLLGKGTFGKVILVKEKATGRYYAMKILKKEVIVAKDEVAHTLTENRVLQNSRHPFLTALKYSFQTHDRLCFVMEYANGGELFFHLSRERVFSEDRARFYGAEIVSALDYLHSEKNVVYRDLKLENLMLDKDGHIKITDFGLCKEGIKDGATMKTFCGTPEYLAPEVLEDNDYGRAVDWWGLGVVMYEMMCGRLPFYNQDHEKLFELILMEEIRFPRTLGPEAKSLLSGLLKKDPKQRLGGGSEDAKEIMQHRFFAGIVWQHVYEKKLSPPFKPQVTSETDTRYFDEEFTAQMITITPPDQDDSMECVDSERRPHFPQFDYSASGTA

Row | SMILES | remaining activity at 10 µM (PKBα; PKBα, 10 μM, read-out: Mean Remaining Enzyme Activity (%)) [%] | remaining activity at 10 µM (PKA; PKA, 10 μM, read-out: Mean Remaining Enzyme Activity (%)) [%] | Mean Remaining Enzyme Activity (%) (PHK; PHK, 10 μM) | remaining activity at 10 µM (PKBα; [1]) [%] | remaining activity at 10 µM (PKA; [2]) [%] | mean activity remaining (as a percentage of the original activity), PHK (PHK) [%] | remaining activity at 10 µM (TBK1) [%] | mean activity remaining (as a percentage of the original activity), PKBa (PKBα; 10 micromolar compound) [%] | mean activity remaining (as a percentage of the original activity), PKA (PKA; 10 micromolar compound) [%] | mean activity remaining (as a percentage of the original activity), TBK1 (TBK1) [%]
1 | CC(C)c1cnn2c(NCc3ccccc3)cc(NCCCCCCCN)nc12 [BS-181] | 82 | 110 | 49 | – | – | – | – | – | – | –
2 | C=C[C@H](CO)Nc1cc(NCc2ccccc2)n2ncc(C(C)C)c2n1 [ICEC0065] | – | – | – | 116 | 107 | 68 | 83 | – | – | –
3 | CC[C@H](CO)Nc1cc(NCc2ccccc2)n2ncc(C(C)C)c2n1 [ICEC0067] | – | – | – | 109 | 93 | 68 | 85 | – | – | –
4 | CC(C)c1cnn2c(NCc3ccccc3)cc(N[C@@H](CO)[C@H](O)CO)nc12 [ICEC0318, (3S)-3-(7-(Benzylamino)-3-isopropylpyrazolo[1,5-a]pyrimidin-5-ylamino)butane-1,2,4-triol] | – | – | – | 103 | 93 | 62 | 87 | – | – | –
5 | CC(C)c1cnn2c(NCc3ccccc3F)cc(NCCCCCN)nc12 [ICEC-0232] | – | – | – | – | – | 10 | – | 75 | 96 | 91
